Test results: patent publication US7288547B2, “CDK-inhibitory 2-heteroaryl-pyrimidines, their production and use as pharmaceutical agents” (Schering AG, priority 2002, dated 2007)
Read-outs that look alike come from different tables or passages of the source.

How the values were obtained:
CDK2/CycE = biological target: T1, CDK2/CycE (Homo sapiens, UniProt P24941); assay: CDK2/CycE Kinase Assay; format: biochemical
T1 construct: GST; purchased Proquinase Company, Freiburg; host or cells: baculovirus-infected insect cells (Sf9)
Experimental: Recombinant CDK2- and CycE-GST-fusion proteins, purified from baculovirus-infected insect cells (Sf9), were purchased by the Proquinase Company, Freiburg. Histone IIIS, which was used as a kinase substrate, was purchased by the Sigma Company.
The reaction was stopped by adding EDTA solution (250 mmol, pH 8.0, 14 μl/measuring point).
From each reaction batch, 10 μl was applied to P30 filter strips (Wallac Company), and non-incorporated ^33P-ATP was removed by subjecting the filter strips to three washing cycles for 10 minutes each in 0.5% phosphoric acid. After the filter strips were dried for one hour at 70° C., the filter strips were covered with scintillator strips (MeltiLex™ A, Wallac Company) and baked for one hour at 90° C. The amount of incorporated ^33P (substrate phosphorylation) was determined by scintillation measurement in a gamma-radiation measuring device (Wallac).

MCF7 = assay: Proliferation Assay (crystal violet); format: cell-based, human
Experimental: Cultivated human tumor cells (as indicated) were flattened out at a density of 5000 cells/measuring point in a 96-well multititer plate in 200 μl of the corresponding growth medium. After 24 hours, the cells of one plate (zero-point plate) were colored with crystal violet (see below), while the medium of the other plates was replaced by fresh culture medium (200 μl), to which the test substances were added in various concentrations (0 μm, as well as in the range of 0.01-30 μm; the final concentration of the solvent dimethyl sulfoxide was 0.5%). The cells were incubated for 4 days in the presence of test substances. The cell proliferation was determined by coloring the cells with crystal violet: the cells were fixed by adding 20 μl/measuring point of a 11% glutaric aldehyde solution for 15 minutes at room temperature. After three washing cycles of the fixed cells with water, the plates were dried at room temperature. The cells were colored by adding 100 μl/measuring point of a 0.1% crystal violet solution (pH was set at 3 by adding acetic acid). After three washing cycles of the colored cells with water, the plates were dried at room temperature. The dye was dissolved by adding 100 μl/measuring point of a 10% acetic acid solution. The extinction was determined by photometry at a wavelength of 595 nm. The change of cell growth, in percent, was calculated by standardization of the measured values to the extinction values of the zero-point plate (=0%) and the extinction of the untreated (0 μm) cells (=100%).

[1] = read-out: Inhibition IC50 CDK2/CycE
[2] = Homo sapiens, MCF7, 96 h, MCF7 cells, 4 days incubation, read-out: Proliferation IC50 MCF7
[3] = Homo sapiens, MCF7, MCF-7 cells, comparison with known reference compounds, read-out: MCF-7 IC50

IC50 (CDK2/CycE; [1]) [nM] | IC50 (MCF7; [2]) [nM] | IC50 (MCF7; [3]) [nM] | IC50 (MCF7; MCF7 cells, 4 days incubation, read-out: Proliferation IC50 MCF7) [nM] | IC50 (CDK2/CycE; comparison with known reference compounds, read-out: CDK2/CycE IC50) [nM] | Compound
25 | 2300 | – | – | – | CC(Nc1nc(Nc2ccc(S(N)(=O)=O)nc2)ncc1Br)C(C)NC1CC1 (centres unmarked) [Example 6.0, 5-[5-bromo-4-(2-cyclopropylamino-1-methyl-propylamino)-pyrimidin-2-ylamino]-pyridine-2-sulfonic acid amide]
< 10 | 260 | – | – | – | CCC(CO)Sc1nc(Nc2ccc(S(N)(=O)=O)nc2)ncc1Br (centres unmarked) [Example 4.2]
36 | 620 | – | – | – | CC(CO)N(C)c1nc(Nc2ccc(S(N)(=O)=O)nc2)ncc1Br (centres unmarked) [Example 3.3]
87 | 3000 | – | – | – | CC(C)[C@H](CO)Nc1nc(Nc2cc(S(N)(=O)=O)sc2Cl)ncc1Br [Example 1.8]
– | – | 6000 | – | – | O=C1Cc2c([nH]c3ccc(Br)cc23)-c2ccccc2N1 [Kenpaullone, reference compound]
– | – | 1200 | – | – | O=C1Cc2c([nH]c3ccc([N+](=O)[O-])cc23)-c2ccccc2N1 [Alsterpaullone, reference compound]
30 | 5300 | – | – | – | NS(=O)(=O)c1ccc(Nc2ncc(Br)c(SCCCCO)n2)cn1 [Example 1.21]
8 | – | – | < 100 | – | C[C@@H](O)[C@@H](C)Nc1nc(Nc2ccc(S(N)(=O)=O)nc2)ncc1Br [Example 1.13]
17 | 870 | – | – | – | CC(=O)C(C)Nc1nc(Nc2ccc(S(N)(=O)=O)nc2)ncc1Br (centres unmarked) [Example 1.14]
< 10 | 610 | – | – | – | CC(CO)Sc1nc(Nc2ccc(S(N)(=O)=O)nc2)ncc1Br (centres unmarked) [Example 4.1]
< 10 | 100 | – | – | – | C[C@@H](O)[C@@H](C)Nc1nc(Nc2ccc(S(N)(=O)=O)nc2)ncc1Br [Example 3.6]
22 | 240 | – | – | – | CC(O)C(C)Nc1nc(Nc2ccc(S(N)(=O)=O)nc2)ncc1Br (centres unmarked) [Example 1.12]
74 | 630 | – | – | – | CCC(Sc1nc(Nc2ccc(S(N)(=O)=O)nc2)ncc1Br)C(C)O (centres unmarked) [Example 4.6, 5-[5-bromo-4-(1-ethyl-2-hydroxy-propylsulfanyl)-pyrimidin-2-ylamino]-pyridine-2-sulfonic acid amide]
< 10 | 880 | – | – | – | C[C@H](O)[C@H](C)Nc1nc(Nc2ccc(S(N)(=O)=O)nc2)ncc1Br [Example 3.5]
16 | 300 | – | – | – | CC1CCCCC1Nc1nc(Nc2ccc(S(N)(=O)=O)nc2)ncc1Br (centres unmarked) [Example 3.13]
50 | – | – | – | – | CC(C)[C@H](CO)Nc1nc(Nc2csc(S(N)(=O)=O)c2)ncc1Br [Example 1.9]
12 | – | – | – | – | NS(=O)(=O)c1ccc(Nc2ncc(Br)c(NCC3CC3)n2)cn1 [Example 1.19]
– | – | 30000 | – | – | Cn1cnc2c(NCc3ccccc3)nc(NCCO)nc21 [Olomoucine, reference compound]
20 | 790 | – | – | – | NS(=O)(=O)c1ccc(Nc2ncc(Br)c(NC3CCCCC3)n2)cn1 [Example 3.12]
– | – | 2000 | – | 10 | CC(C)[C@H](CO)Nc1nc(Nc2cccc(Cl)c2)c2ncn(C(C)C)c2n1 [Purvalanol A, reference compound]
13 | 2000 | – | – | – | CC[C@@H](CO)Nc1nc(Nc2ccc(S(N)(=O)=O)nc2)ncc1Br [Example 1.15]
36 | 2000 | – | – | – | COC[C@H](C)Nc1nc(Nc2ccc(S(N)(=O)=O)nc2)ncc1Br [Example 1.16]
7 | 500 | – | – | – | CC[C@H](CO)Nc1nc(Nc2ccc(S(N)(=O)=O)nc2)ncc1Br [Example 1.17]
6 | – | – | – | – | C[C@H](CO)Nc1nc(Nc2ccc(S(N)(=O)=O)nc2)ncc1Br [Example 1.7]
58 | 840 | – | – | – | CC(Nc1nc(Nc2ccc(S(N)(=O)=O)nc2)ncc1Br)C(C)(C)O (centres unmarked) [Example 3.4]
34 | 230 | – | – | – | CC(O)C(C)Sc1nc(Nc2ccc(S(N)(=O)=O)nc2)ncc1Br (centres unmarked) [Example 4.3]
13 | 1900 | – | – | – | C[C@H](CO)Nc1nc(Nc2ccc(S(=O)(=O)NCCO)nc2)ncc1Br [Example 1.20]
40 | 1200 | – | – | – | CC(C)[C@H](CO)Nc1nc(Nc2ccc(S(N)(=O)=O)nc2)ncc1Br [Example 1.11]
